Data published in article PMC8044163, “Vitamin D and lumisterol derivatives can act on liver X receptors (LXRs)” (Scientific Reports, 2021).

System: murine dermal fibroblasts
Test: RNA-Seq of newborn murine dermal fibroblasts
Type: cell-based, mouse
Conditions: 10^−7 M, 24 h
Experimental: All animal studies followed guidelines outlined by the NIH Guide for the Care and Use of Laboratory Animals and protocols were approved by the Institutional Animal Care and Use Committee at the NIEHS or the UAB. […] Skin samples from newborn C57BL/6 mice were collected at the NIEHS. Dermal fibroblasts were isolated from the skin of newborn mice, 1–2 day old. Briefly, we followed the protocols described previously. The skin was washed in PBS, cut into smaller pieces and incubated in 2.4 U/ml of dispase II (Roche) overnight at 4 °C. The dermis was separated from the epidermis and incubated in 0.1% collagenase (Roche) at 4 °C overnight. […] Single cell suspension was prepared by pipetting and draining through a cell strainer. After centrifugation, cell pellets were suspended in DMEM medium containing 10% charcoal-stripped fetal bovine serum (cFBS), mouse fibroblasts growth factor (FGF) and 1% antibiotic, and inoculated into tissue culture dishes (Midwest Scientific, TPP). Cells, in early passages, from different mice were pooled together to provide representative samples for experiments. Fibroblasts were cultured in Petri dishes (10 cm in diameter) in DMEM and 10% cFBS and triplicate semi-confluent cultures were treated as described.
Triplicate cultures of murine fibroblasts were used for RNA isolation (RNAeasy Micro kit, Qiagen), the RNA samples were combined for each condition and at least 200 ng of RNA for each sample was used to create libraries for RNA sequencing by BGI Americas Corporation Service (Cambridge, MA)[67]. Quality of RNA and its concentration were determined using Agilent 2100.
The raw sequence FASTQ files were aligned to Gencode’s GRCm38 p4 Release M11 genome using STAR version 2.5.4b (parameters used: –outReadsUnmapped Fastx; –outSAMtype BAM SortedByCoordinate; –outSAMattributes All; –outFilterIntronMotifs RemoveNoncanonicalUnannotated)[69]. The abundance of transcripts was calculated from the alignments using Cufflinks version 2.2.1 (parameters used: –G; –L; –library-type fr-firststrand). Samples were merged using default parameters with Cuffmerge[70],[71]. The differential expression was calculated using Cuffdiff’s default parameters. The raw data have been deposited at the NCBI GEO (GSE145818).

C=C1C(=CC=C2CCCC3(C)C2CCC3C(C)(O)CC(O)CC(C)C)CC(O)CC1O (stereo not shown) [1,20,23(OH)3D3]
Adh7 expression level: 1.313
Adh7 log2(fold_change) vs control: 2.36
Aqp11 expression level: 0.9394
Aqp11 log2(fold_change) vs control: 2.077
Arid3b expression level: 0.6082
Arid3b log2(fold_change) vs control: -2.478
Bicd1 expression level: 0.7058
Bicd1 log2(fold_change) vs control: -1.592
Btc expression level: 1.117
Btc log2(fold_change) vs control: 2.211
Car9 expression level: 2.818
Car9 log2(fold_change) vs control: -1.732
Cbs expression level: 0.2989
Cbs log2(fold_change) vs control: -2.697
Ccl4 expression level: 0.3377
Ccl4 log2(fold_change) vs control: -1.322
Cd68 expression level: 3.541
Cd68 log2(fold_change) vs control: 1.639
Cd200 expression level: 0.5777
Cd200 log2(fold_change) vs control: -1.286
Cherp expression level: 32.7784
Cherp log2(fold_change) vs control: -2.489
Clec2g expression level: 0
Clec2g log2(fold_change) vs control: -inf
Cnnm4 expression level: 4.2236
Cnnm4 log2(fold_change) vs control: -3.566
Cox15 expression level: 15.6597
Cox15 log2(fold_change) vs control: 1.429
Cpa2 expression level: 0.3128
Cpa2 log2(fold_change) vs control: -2.322
Ctrl expression level: 0.34
Ctrl log2(fold_change) vs control: -1.578
Dcun1d1 expression level: 4.162
Dcun1d1 log2(fold_change) vs control: -1.661
Defb42 expression level: 0.2203
Defb42 log2(fold_change) vs control: -2.046
Dtx1 expression level: 0.142
Dtx1 log2(fold_change) vs control: -3.544
Ehf expression level: 0.2985
Ehf log2(fold_change) vs control: -1.4739
Ercc2 expression level: 13.9366
Ercc2 log2(fold_change) vs control: -3.6
Erh expression level: 2.618
Erh log2(fold_change) vs control: -1.258
Fmnl1 expression level: 0.2192
Fmnl1 log2(fold_change) vs control: -2.084
Gys2 expression level: 0
Gys2 log2(fold_change) vs control: -inf
Hist1h2ab expression level: 1.43
Hist1h2ab log2(fold_change) vs control: 2.322
Hist1h2bg expression level: 0
Hist1h2bg log2(fold_change) vs control: -inf
Hist1h2bh expression level: 0
Hist1h2bh log2(fold_change) vs control: -inf
Hist1h4c expression level: 0.4025
Hist1h4c log2(fold_change) vs control: -1
Isl1 expression level: 0.3246
Isl1 log2(fold_change) vs control: -1.301
Krt19 expression level: 10.3867
Krt19 log2(fold_change) vs control: 1.043
Larp1b expression level: 6.304
Lhx6 expression level: 2.879
Lhx6 log2(fold_change) vs control: -2.012
Lsm5 expression level: 1.269
Lsm5 log2(fold_change) vs control: -1.065
M1ap expression level: 2.14
M1ap log2(fold_change) vs control: 1.796
Med9os expression level: 0.7829
Med9os log2(fold_change) vs control: -1.4
Nckipsd expression level: 23.2533
Nckipsd log2(fold_change) vs control: 2.486
Nr3c2 expression level: 0.0668
Nr3c2 log2(fold_change) vs control: -4.037
Nr6a1 expression level: 0.2068
Nr6a1 log2(fold_change) vs control: -3.152
Ntrk3 expression level: 0.4025
Ntrk3 log2(fold_change) vs control: -2.2019
Parvg expression level: 0.1595
Parvg log2(fold_change) vs control: -3.209
Pde4dip expression level: 24.1833
Pde4dip log2(fold_change) vs control: -7.338
Psd4 expression level: 0.1018
Psd4 log2(fold_change) vs control: -3.94
Ptpa expression level: 214.561
Ptpa log2(fold_change) vs control: 1.701
Ptpn6 expression level: 3.903
Ptpn6 log2(fold_change) vs control: -1.613
Rnu3a expression level: 0
Rnu3a log2(fold_change) vs control: -inf
Rpph1 expression level: 0.6553
Rpph1 log2(fold_change) vs control: -1
Rsad1 expression level: 1.419
Rsad1 log2(fold_change) vs control: -1.14
Saa1 expression level: 0.1901
Saa1 log2(fold_change) vs control: -2.322
Samd12 expression level: 0.2728
Samd12 log2(fold_change) vs control: -3.717
Scn8a expression level: 0.1998
Scn8a log2(fold_change) vs control: -2
Sgca expression level: 0.5689
Sgca log2(fold_change) vs control: -1.112
Slc15a4 expression level: 13.3996
Slc15a4 log2(fold_change) vs control: -2.086
Slc16a5 expression level: 0.07215
Slc16a5 log2(fold_change) vs control: -3.671
Snhg9 expression level: 3.722
Snhg9 log2(fold_change) vs control: -2.322
St7 expression level: 24.6198
St7 log2(fold_change) vs control: -1.48
Stmn1 expression level: 5.272
Stmn1 log2(fold_change) vs control: 1.77
Susd1 expression level: 2.296
Susd1 log2(fold_change) vs control: 1.732
Syt8 expression level: 0.5148
Syt8 log2(fold_change) vs control: -2.627
Syt12 expression level: 0.9828
Syt12 log2(fold_change) vs control: -2.055
Tldc2 expression level: 0
Tldc2 log2(fold_change) vs control: -inf
Tnnc2 expression level: 0.3105
Tnnc2 log2(fold_change) vs control: -1.361
Unc5c expression level: 0.4569
Unc5c log2(fold_change) vs control: -1.248
Wdr17 expression level: 0.2366
Wdr17 log2(fold_change) vs control: -3.241
Zbtb18 expression level: 4.229
Zbtb18 log2(fold_change) vs control: -3.388
Zfp618 expression level: 1.3488
Zfp618 log2(fold_change) vs control: -1.817
number of genes downregulated, FC ≥ 2: 520
number of genes upregulated, FC ≥ 2: 531
number of genes solely downregulated (FC ≥ 2): 113 (10.7%)
number of genes solely upregulated (FC ≥ 2): 256 (17%)
